Results taken from US9029544B2, “Tricyclic pyridine derivatives, medicaments containing such compounds, their use and process for their preparation” (Boehringer Ingelheim International GmbH, priority 2010, dated 2015).

Target: T1, Recombinant human CETP (Homo sapiens, UniProt P11597)
T1 construct: made in house; host or cells: CHO cells (secreted into conditioned medium)
T1 sequence (P11597 18-493): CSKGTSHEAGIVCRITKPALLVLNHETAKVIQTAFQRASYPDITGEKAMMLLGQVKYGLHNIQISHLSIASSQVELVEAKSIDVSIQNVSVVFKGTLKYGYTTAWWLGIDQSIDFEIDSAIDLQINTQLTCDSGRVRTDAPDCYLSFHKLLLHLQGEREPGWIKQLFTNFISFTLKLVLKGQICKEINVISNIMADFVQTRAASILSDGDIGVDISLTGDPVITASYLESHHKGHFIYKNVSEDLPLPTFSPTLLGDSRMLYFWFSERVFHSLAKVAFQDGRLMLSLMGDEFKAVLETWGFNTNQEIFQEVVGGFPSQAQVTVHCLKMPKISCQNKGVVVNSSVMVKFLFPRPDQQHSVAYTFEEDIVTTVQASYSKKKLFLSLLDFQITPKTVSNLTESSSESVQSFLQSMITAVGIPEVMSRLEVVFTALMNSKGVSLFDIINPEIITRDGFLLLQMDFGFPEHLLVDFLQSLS
Experiment: CETP in vitro assay (fluorometric assay, Roar Biomedical; cholesterol ester transfer from HDL to LDL)
Assay type: biochemical
Conditions: recombinant human CETP from CHO cells; 3 hours at 37° C.; fluorescence 485/535 nm; compound concentrations between 1 nM and 30 μM; read-out: IC50 values for inhibition of CETP
Protocol: CETP inhibitory activity of compounds of the present invention can be determined in a fluorometric assay purchased from Roar Biomedical, Inc. (New York, N.Y., USA). […] Recombinant human CETP was partially purified from medium conditioned by CETP expressing CHO cells. In a 384 well format 2.5 μl of compound solution in DMSO was combined with 2 μl of donor solution, 2 μl of acceptor solution and 0.8 μl of recombinant human CETP solution in a total volume of 100 μl with assay buffer and incubated for 3 hours at 37° C. The fluorescence intensity was measured at excitation wavelength of 485 nm and emission wavelength of 535 nm. IC50 values are calculated from dose effect curves from compound concentrations between 1 nM and 30 μM.

| SMILES | IC50 |
| --- | --- |
| CC1(C)C[C@H](O)c2c(nc(C3CCOCC3)c3c2C2(CCCC2)O[C@@H]3c2ccc(S(F)(F)(F)(F)F)cc2)[C@@H]1O [4(6), (3′R,6′R,9′S)-7′,7′-dimethyl-4′-(tetrahydro-2H-pyran-4-yl)-3′-(4-(pentafluorosulfanyl)phenyl)-6′,7′,8′,9′-tetrahydro-3′H-spiro[cyclopentane-1,1′-furo[3,4-c]quinoline]-6′,9′-diol] | 19 nM |
| CC(C)c1nc2c(c3c1[C@@H](c1ccc(S(F)(F)(F)(F)F)cc1)OC31CCOCC1)[C@@H](O)CC(C)(C)[C@H]2O [4(7), (3R,6R,9S)-4-isopropyl-7,7-dimethyl-3-(4-(pentafluorosulfanyl)phenyl)-2′,3′,5′,6,6′,7,8,9-octahydro-3H-spiro[furo[3,4-c]quinoline-1,4′-pyran]-6,9-diol] | 12 nM |
| CC1(C)C[C@H](O)c2c(nc(C3CCOCC3)c3c2C2(CCOCC2)O[C@@H]3c2ccc(C(F)(F)F)c(C#N)c2)[C@@H]1O [4(9), 5-((3R,6R,9S)-6,9-dihydroxy-7,7-dimethyl-4-(tetrahydro-2H-pyran-4-yl)-2′,3′,5′,6,6′,7,8,9-octahydro-3H-spiro[furo[3,4-c]quinoline-1,4′-pyran]-3-yl)-2-(trifluoromethyl)benzonitrile] | 147 nM |
| CC(C)c1nc2c(c3c1[C@@H](c1ccc(C(F)(F)F)c(C#N)c1)OC31CCOCC1)[C@@H](O)CC1(CCC1)[C@H]2O [4(10), 5-((3R,6R,9S)-6,9-dihydroxy-4-isopropyl-7,7-(propan-1,3-diyl)-2′,3′,5′,6,6′,7,8,9-octahydro-3H-spiro[furo[3,4-c]quinoline-1,4′-pyran]-3-yl)-2-(trifluoromethyl)benzonitrile] | 15 nM |
| CC1(C)C[C@H](O)c2c(nc(C3CCOCC3)c3c2C2(CCOCC2)O[C@@H]3c2ccc(S(F)(F)(F)(F)F)cc2)[C@@H]1O [4(12), (3R,6R,9S)-7,7-dimethyl-4-(tetrahydro-2H-pyran-4-yl)-3-(4-(pentafluorosulfanyl)phenyl)-2′,3′,5′,6,6′,7,8,9-octahydro-3H-spiro[furo[3,4-c]quinoline-1,4′-pyran]-6,9-diol] | 70 nM |
| CC(C)(C)c1ccc([C@H]2OC3(CCOCC3)c3c2c(C2CCOCC2)nc2c3[C@@H](O)CC(C)(C)[C@H]2O)cc1 [4(13), (3R,6R,9S)-3-(4-tert-butylphenyl)-7,7-dimethyl-4-(tetrahydro-2H-pyran-4-yl)-2′,3′,5′,6,6′,7,8,9-octahydro-3H-spiro[furo[3,4-c]quinoline-1,4′-pyran]-6,9-diol] | 51 nM |
| O[C@H]1CC2(CCC2)[C@@H](O)c2nc(C3CCOCC3)c3c(c21)C1(CCOCC1)O[C@@H]3c1ccc(C(F)(F)F)cc1 [4(16), (3R,6R,9S)-7,7-(propan-1,3-diyl)-4-(tetrahydro-2H-pyran-4-yl)-3-(4-(trifluoromethyl)phenyl)-2′,3′,5′,6,6′,7,8,9-octahydro-3H-spiro[furo[3,4-c]quinoline-1,4′-pyran]-6,9-diol] | 44 nM |
| CC(C)c1nc2c(c3c1[C@@H](c1ncc(C(F)(F)F)cc1F)OC31CCOCC1)[C@@H](O)CC(C)(C)C2 [5(2), (3S,9S)-3-(3-fluoro-5-(trifluoromethyl)pyridin-2-yl)-4-isopropyl-7,7-dimethyl-2′,3′,5′,6,6′,7,8,9-octahydro-3H-spiro[furo[3,4-c]quinoline-1,4′-pyran]-9-ol] | 206 nM |
| CC(C)c1nc2c(c3c1[C@@H](c1ccc(C(F)(F)F)cn1)OC31CCOCC1)[C@@H](O)CC(C)(C)[C@H]2O [5(4), (3S,6R,9S)-4-isopropyl-7,7-dimethyl-3-(5-(trifluoromethyl)pyridin-2-yl)-2′,3′,5′,6,6′,7,8,9-octahydro-3H-spiro[furo[3,4-c]quinoline-1,4′-pyran]-6,9-diol] | 183 nM |
| CC(C)c1nc2c(c3c1[C@@H](c1ccc(C(F)(F)F)c(F)c1)OC31CCOCC1)[C@@H](O)CC(C)(C)[C@H]2O [5(6), (3R,6R,9S)-3-(3-fluoro-4-(trifluoromethyl)phenyl)-4-isopropyl-7,7-dimethyl-2′,3′,5′,6,6′,7,8,9-octahydro-3H-spiro[furo[3,4-c]quinoline-1,4′-pyran]-6,9-diol] | 13 nM |
| CC(C)c1nc2c(c3c1[C@@H](c1ccc(C(F)(F)F)nc1)OC31CCOCC1)[C@@H](O)CC(C)(C)[C@@H]2O [5(7), (3R,6S,9S)-4-isopropyl-7,7-dimethyl-3-(6-(trifluoromethyl)pyridin-3-yl)-2′,3′,5′,6,6′,7,8,9-octahydro-3H-spiro[furo[3,4-c]quinoline-1,4′-pyran]-6,9-diol] | 4120 nM |

The remaining compounds from weak to strong by IC50, led by results:

| IC50 | SMILES |
| --- | --- |
| 2700 nM | CC(C)c1nc2c(c3c1[C@@H](c1ccc(C(F)(F)F)cn1)OC31CCOCC1)[C@@H](O)CC(C)(C)[C@@H]2O [5(3), (3S,6S,9S)-4-isopropyl-7,7-dimethyl-3-(5-(trifluoromethyl)pyridin-2-yl)-2′,3′,5′,6,6′,7,8,9-octahydro-3H-spiro[furo[3,4-c]quinoline-1,4′-pyran]-6,9-diol] |
| 418 nM | CC(C)c1nc2c(c3c1[C@@H](c1ccc(C(F)(F)F)nc1)OC31CCOCC1)[C@@H](O)CC(C)(C)[C@H]2O [5(5), (3R,6R,9S)-4-isopropyl-7,7-dimethyl-3-(6-(trifluoromethyl)pyridin-3-yl)-2′,3′,5′,6,6′,7,8,9-octahydro-3H-spiro[furo[3,4-c]quinoline-1,4′-pyran]-6,9-diol] |
| 255 nM | CC1(C)C[C@H](O)c2c(nc(C3CCOCC3)c3c2C2(CCOCC2)O[C@@H]3c2ccc(C(F)(F)F)cc2)[C@@H]1O [4(11), (3R,6R,9S)-7,7-dimethyl-4-(tetrahydro-2H-pyran-4-yl)-3-(4-(trifluoromethyl)phenyl)-2′,3′,5′,6,6′,7,8,9-octahydro-3H-spiro[furo[3,4-c]quinoline-1,4′-pyran]-6,9-diol] |
| 78 nM | CC(C)c1nc2c(c3c1[C@@H](c1ccc(C(F)(F)F)cc1)OC31CCOCC1)[C@@H](O)CC1(CCC1)[C@H]2O [5(1), (3R,6R,9S)-4-isopropyl-7,7-(propan-1,3-diyl)-3-(4-(trifluoromethyl)phenyl)-2′,3′,5′,6,6′,7,8,9-octahydro-3H-spiro[furo[3,4-c]quinoline-1,4′-pyran]-6,9-diol] |
| 65 nM | N#Cc1cc([C@H]2OC3(CCOCC3)c3c2c(C2CCOCC2)nc2c3[C@@H](O)CC3(CCC3)[C@H]2O)ccc1C(F)(F)F [4(14), 5-((3R,6R,9S)-6,9-dihydroxy-7,7-(propan-1,3-diyl)-4-(tetrahydro-2H-pyran-4-yl)-2′,3′,5′,6,6′,7,8,9-octahydro-3H-spiro[furo[3,4-c]quinoline-1,4′-pyran]-3-yl)-2-(trifluoromethyl)benzonitrile] |
| 27 nM | CC(C)c1nc2c(c3c1[C@@H](c1ccc(C(F)(F)F)c(C#N)c1)OC31CCOCC1)[C@@H](O)CC(C)(C)[C@H]2O [4(15), 5-((3R,6R,9S)-6,9-dihydroxy-4-isopropyl-7,7-dimethyl-2′,3′,5′,6,6′,7,8,9-octahydro-3H-spiro[furo[3,4-c]quinoline-1,4′-pyran]-3-yl)-2-(trifluoromethyl)benzonitrile] |
| 14 nM | CC(C)c1nc2c(c3c1[C@@H](c1ccc(S(F)(F)(F)(F)F)cc1)OC31CCOCC1)[C@@H](O)CC1(CCC1)[C@H]2O [4(8), (3R,6R,9S)-4-isopropyl-7,7-(propan-1,3-diyl)-3-(4-(pentafluorosulfanyl)phenyl)-2′,3′,5′,6,6′,7,8,9-octahydro-3H-spiro[furo[3,4-c]quinoline-1,4′-pyran]-6,9-diol] |
